Results reported in US20060154335A1, “Novel members of the steroid/thyroid superfamily and uses therefor” (The Salk Institute for Biological Studies, priority 1994, published 2006).
“Also recorded” adds a separate entry of the source.

How the values were obtained:
[1] = molecular target: T1, PPARγ (Mus musculus, UniProt P37238, N383S); assay: Cotransfection assay in CV-1 cells, PPRE3-TK-LUC reporter, CMX-PPARγ; assay type: cell-based; details: 5 μM Wy 14,643, 30 μM linoleic acid, 30 μM LY-171883
T1 construct: The first clone encodes a 475-amino acid protein; expressed in transfected cells; host or cells: CV-1 cells
T1 sequence (P37238 31-505 N383S): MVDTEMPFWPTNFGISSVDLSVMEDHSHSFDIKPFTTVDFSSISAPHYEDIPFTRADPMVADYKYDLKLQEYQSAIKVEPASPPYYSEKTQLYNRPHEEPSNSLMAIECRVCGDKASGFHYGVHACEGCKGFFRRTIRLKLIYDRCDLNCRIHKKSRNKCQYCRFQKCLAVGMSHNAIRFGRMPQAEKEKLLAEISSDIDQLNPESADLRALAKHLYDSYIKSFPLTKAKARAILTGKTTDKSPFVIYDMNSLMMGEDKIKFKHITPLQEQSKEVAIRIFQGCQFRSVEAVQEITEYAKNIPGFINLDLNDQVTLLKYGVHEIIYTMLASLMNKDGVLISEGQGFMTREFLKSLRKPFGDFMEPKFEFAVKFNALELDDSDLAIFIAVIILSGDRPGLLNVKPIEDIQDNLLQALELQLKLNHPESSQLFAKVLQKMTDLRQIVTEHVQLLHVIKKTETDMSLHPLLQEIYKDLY
Text: (§1) Luciferase activities are presented as the fold activation achieved in compound-treated versus mock-treated cells. Similar results were obtained in triplicate in three independent experiments.
(§2) The mammalian expression vectors pCMX-PPARα, pCMX-PPARγ and pCMX-PPARδ were constructed by inserting the cDNA inserts of PPARα, PPARγ, and PPARδ into pCMX as previously described by Umesono et al., in Cell 65:1255-1266 (1991)). Construction of the reporter PPRE3-TK-LUC has also been previously described by Kliewer et al., (1992) supra. Cotransfection assays in CV-1 cells were done in 48 well plates using N-[1-(2,3-dioleoyloxy)-propyl [N,N,N-trimethyl ammonium methyl sulfate (DOTAP) according to the manufacturer's instructions (Boehringer Mannheim). Transfections contained 10 ng of receptor expression plasmid vector, 20 ng of the reporter PPRE3-TK-LUC, 60 ng of pCMX-βGAL (β-galactosidase) as an internal control, and 210 ng of carrier plasmid pGEM. Cells were incubated in the presence of DOTAP for 8 hours, washed, and incubated in the presence of peroxisome proliferators or fatty acids for 36 hours. Cell extracts were prepared and assayed for luciferase and β-galactosidase activity as previously described (Umesono, supra). All experimental points were done in triplicate.

[2] = molecular target: T2, PPARα (Mus musculus, UniProt P23204); assay: Cotransfection assay in CV-1 cells, PPRE3-TK-LUC reporter, CMX-PPARα; assay type: cell-based; details: 5 μM Wy 14,643, 30 μM linoleic acid, 30 μM LY-171883
T2 construct: constructed by inserting the cDNA inserts of PPARα, PPARγ, and PPARδ into pCMX; expressed in transfected cells; host or cells: CV-1 cells
T2 sequence (P23204 1-468): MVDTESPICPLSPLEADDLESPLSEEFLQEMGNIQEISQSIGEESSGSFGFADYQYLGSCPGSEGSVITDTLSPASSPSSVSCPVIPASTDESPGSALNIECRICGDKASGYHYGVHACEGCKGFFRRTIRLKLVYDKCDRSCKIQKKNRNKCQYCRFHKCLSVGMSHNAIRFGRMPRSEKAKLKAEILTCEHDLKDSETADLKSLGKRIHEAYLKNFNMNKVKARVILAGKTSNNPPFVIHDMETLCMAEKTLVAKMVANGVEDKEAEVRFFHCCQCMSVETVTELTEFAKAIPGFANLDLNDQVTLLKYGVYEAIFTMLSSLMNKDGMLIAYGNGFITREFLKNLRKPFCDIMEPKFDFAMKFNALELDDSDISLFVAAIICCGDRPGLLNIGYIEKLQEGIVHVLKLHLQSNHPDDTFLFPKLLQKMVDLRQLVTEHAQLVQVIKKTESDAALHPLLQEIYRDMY
Text: as §1, §2

[3] = molecular target: T3, PPARδ (Mus musculus, UniProt P35396, A150G/E149D); assay: Cotransfection assay in CV-1 cells, PPRE3-TK-LUC reporter, CMX-PPARδ; assay type: cell-based; details: 5 μM Wy 14,643, 30 μM linoleic acid, 30 μM LY-171883
T3 construct: The second clone encodes a 440-amino acid protein; expressed in transfected cells; host or cells: CV-1 cells
T3 sequence (P35396 1-440 E149D/A150G): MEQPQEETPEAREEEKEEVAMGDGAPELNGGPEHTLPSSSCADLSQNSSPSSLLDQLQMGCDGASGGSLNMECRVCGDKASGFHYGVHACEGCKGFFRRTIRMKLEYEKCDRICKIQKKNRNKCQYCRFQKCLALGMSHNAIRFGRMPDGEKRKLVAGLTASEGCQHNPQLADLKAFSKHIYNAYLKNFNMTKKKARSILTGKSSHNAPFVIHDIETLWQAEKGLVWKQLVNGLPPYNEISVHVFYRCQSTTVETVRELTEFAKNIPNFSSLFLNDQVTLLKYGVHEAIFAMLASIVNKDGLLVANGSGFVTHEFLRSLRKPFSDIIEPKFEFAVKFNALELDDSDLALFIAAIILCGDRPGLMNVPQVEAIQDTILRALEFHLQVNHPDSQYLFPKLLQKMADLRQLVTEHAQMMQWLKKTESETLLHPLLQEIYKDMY
Text: as §2

[4] = tested on: PPARα; assay: cell_activity; details: 5 uM Wy 14,643, CV-1 cells, luciferase reporter

activation of PPARα (reporter expression) [2] | Compound | activation of PPARγ (reporter expression) [1] | activation of PPARδ (reporter expression) [3] | activity (fold activation) [4]
strong activators | CCCc1c(OCCCCc2nnn[nH]2)ccc(C(C)=O)c1O [LY-171883] | significant activation; also recorded: most efficiently activated | not activated | –
strong activators | CCCCC/C=C\C/C=C\CCCCCCCC(=O)O [linoleic acid] | no activation | activated; also recorded: most efficiently activated | –
– | PPRE3-TK-LUC (three copies of AOX-PPRE) | – | – | > 100

Compound | activation of PPARα (reporter expression) [2] | activation of PPARγ (reporter expression) [1] | activation of PPARδ (reporter expression) [3] | activity (fold activation) [4]
Cc1cccc(Nc2cc(Cl)nc(SCC(=O)O)n2)c1C [Wy 14,643] | most efficiently activated | no activation; also recorded: fail to respond; also recorded: fails to activate | – | –
